US20050043178A1, “Herbicidal and bacteriostatic compounds from centaurea maculosa” (Colorado State University Research Foundation, priority 2001, published 2005)
Entries after “also recorded” stand apart in the source; their conditions may differ.

What was measured:
[1] = tested on: various weeds and crop plants; assay: Phytotoxic effect on seedlings of weeds and crop plants; format: in vivo; conditions: incl. C. diffusa
Method: (§1) Root exudates collected from non-elicited cultures of C. maculosa were administered in different concentrations (1-3 ml v/v) in the MS basal liquid media containing different seedlings to analyze phenotypic explant response. ii) Effect of fungal cell wall (CWE) elicited root exudates of C. maculosa on shoots and root differentiation of different weeds and crop plants on 14th day. Fungal cell wall extracts (CWE) from Phytophthora cinnamoni and Rhizoctonia solani were used. Data represents the percent inhibition as compared to the untreated control in shooting and rooting response in various tested seedlings against non-elicited and elicited root exudates of C. maculosa. The seedlings tested against C. maculosa exudates were as follows:1: C. maculosa; 2: L. dalmatica; 3: V. thapsus; 4: B. tectorum, 5: K. scoparia; 6: C. diffusa; 7: A. thaliana 8: T. aestivum; 9: L. esculentum. [Means of different letters at the top of each bar indicate significant difference (p<0.05) (SEM±52df)]. • B) Effect of purified HPLC-fraction from C. maculosa root exudates on morphological differentiation of various weeds and food crops. HPLC peaks were collected and administered into 5 ml MS basal medium at 100 μg ml^−1 concentration; fractions were added in different permutations. i) C. maculosa; ii) C. diffusa; iii) K scoparia; iv) L. dalmatica; v) A.thaliana; vi) T. aestivum. […]

[2] = tested on: Arabidopsis thaliana shoot cultures; assay: Phytotoxicity (MIC, shoot and root differentiation) on Arabidopsis thaliana in MS basal medium; format: in vivo; conditions: for minimum inhibitory concentration (MIC): Arabidopsis thaliana shoot cultures in vitro
Method: (§2) Catechin and 2, 4-D were administered in MS basal medium at different concentration range (1-200 μg ml^−1) to check for the minimum inhibitory concentration (MIC). i) 10 μg ml^−1; ii) 60 μg ml^−1; iii) 100 μg ml^−1. • B) Effect of catechin on shoot and root differentiation in A. thaliana plants on the 14th day. Catechin was compared for phytoxicity against 2, 4-D and was administered at 100 μg ml^−1 concentration in MS basal medium (5 ml). Treatments were as follows: 1) Untreated control; 2) (+)-catechin; 3) (−)-catechin; 4) (±)-catechin; 5) (+/−) co-administered catechin; 6) (±) catechin isolated from root exudates of C. maculosa; 7) 2, 4-D. [Means of different letters at the top of each bar indicate significant difference (p<0.05) (SEM±52df)]. • C) Antibacterial activity of (+)-catechin on different bacterial strains. i) Tube antibacterial assay. 1) Control (without (+)-catechin); 2) (+)-catechin 100 μg ml^−1; 3) (+)-catechin 150 μg ml^−1; 4) (+)-catechin 200 μg ml^−1. Bacterial cultures were grown overnight at 24° C. in liquid LB media to an optical density of 0.2 at 600 nm. Different concentrations (100-200 μg ml^−1) of (+)-catechin were administered to the bacteria-containing LB media. Optical density at 600 nm was checked after 24 hrs of incubation to measure bacterial inhibition in tubes. Antibacterial activity was assayed on both tubes and 35 mm plates. ii) Antibacterial activity of (+)-catechin on Pseudomonas fluorescens analyzed in a petri dish assay. Treatments on petri dish refers to the following concentrations: 1) Methanol ((+)-catechin solvent) was used as a control; II) (−)-catechin (100 μg ml^−1); III) (+)-catechin (100 μg/ml); IV) (±)-catechin (200 μg ml^−1); V) (±)-catechin (200 μg ml^−1) isolated from root exudates of C. maculosa.
Root exudates of in vitro-grown C. maculosa plants were assayed for their effects on the phenotypic response and germnination efficiency of various weeds, including Linaria dalmatica (Dalmatian toadflax), Verbascum thapsus (common mullein), Bromos tectorum (downy brome), Kochia scoparia (kochia), Centaurea diffusa (diffuse knapweed), the model plant Arabidopsis thaliana and crops such as wheat (Triticum aestivum) and tomato (Lycopersicon esculentum). Ten day old seedlings and seeds of C. maculosa, L. dalmatica, V. thapsus, B. tectorum, K. scoparia, C. diffusa, A. thaliana, T. aestivum and L. esculetum were placed on MS basal medium in petri dishes after initial surface sterilization. Petri dishes were kept under a 16 hour light and 8 hour dark photoperiod in an incubator (Lab-Line). An additional objective was to check the effect of allelochemicals from C. maculosa on growth and differentiation of food crops such as Triticum aestivum (Wheat) and Lycopersicon esculetum (Tomato). This was of interest as wheat is known to produce an allelopathic effect in its root exudates (H. Wu, T. Haig, J. Prateley, D. Lemerle, M. An, J. Food Agric Chem. 48, 5321 (2000)). Root exudates collected from non-elicited and elicited cultures of C. maculosa were administered in different concentrations (1-3 ml v/v) over the surface sterilized seeds and seedlings to analyze their phytotoxic effects. […] After incubation, growth parameters such as length of shoots, number of shoots and length of primary root of the treated and untreated plants were measured. […]

soil borne bacteria = assay: Antibacterial assay on soil borne bacteria (six strains); format: cell-based; conditions: six bacterial strains / soil-borne pathogens tested
Method: as §2
(§3) Antibacterial plate assay was performed on a bacterial culture grown overnight; both the enantiomers and the racemic catechin were added to the paper discs and allowed to dry under laminar hood conditions. […] Visual observations for inhibition zone were recorded after 24 hrs. […]

Pseudomonas fluorescens = assay: Tube and plate antibacterial assay; format: cell-based; conditions: 100-200 μg/ml, 24 hrs
Method: Catechin and 2, 4-D were administered in MS basal medium at different concentration range (1-200 μg ml^−1) to check for the minimum inhibitory concentration (MIC). i) 10 μg ml^−1; ii) 60 μg ml^−1; iii) 100 μg ml^−1. • B) Effect of catechin on shoot and root differentiation in A. thaliana plants on the 14th day. Catechin was compared for phytoxicity against 2, 4-D and was administered at 100 μg ml^−1 concentration in MS basal medium (5 ml). Treatments were as follows: 1) Untreated control; 2) (+)-catechin; 3) (−)-catechin; 4) (±)-catechin; 5) (+/−) co-administered catechin; 6) (±) catechin isolated from root exudates of C. maculosa; 7) 2, 4-D. [Means of different letters at the top of each bar indicate significant difference (p<0.05) (SEM±52df)]. • C) Antibacterial activity of (+)-catechin on different bacterial strains. i) Tube antibacterial assay. […] Antibacterial activity was assayed on both tubes and 35 mm plates. ii) Antibacterial activity of (+)-catechin on Pseudomonas fluorescens analyzed in a petri dish assay. […]
as §3

Erwinia carotovora = assay: Tube antibacterial assay (OD 600 nm after 24 hrs); format: cell-based; conditions: 100-200 μg/ml
Method: as §2, §3

Xanthomonas campestris = assay: Tube antibacterial assay (OD 600 nm after 24 hrs); format: cell-based; conditions: 100-200 μg/ml
Method: as §2, §3

[3] = tested on: Agrobacterium rhizogenes (15834); assay: Tube antibacterial assay (OD 600 nm after 24 hrs); format: cell-based; conditions: even at higher concentrations
Method: as §2, §3

C. maculosa = assay: Effect on C. maculosa itself (autotoxicity); format: in vivo, Centaurea maculosa; conditions: FIG. 1(b and c)
Method: as §1

(−)-catechin [(−)catechin]
spectrum of phytotoxicity / allelochemical activity [1]: broad-spectrum phytotoxicity
doses accounting for the allelochemical activity (as low as) ([2]; A. thaliana, FIGS. 2 a, b): 50 to 60 µg/mL
antibacterial activity (soil borne bacteria): failed to show any antibacterial activity
antibacterial activity (soil borne bacteria; listed as (−)-catechin): does not show

Oc1cc(O)c2c(c1)O[C@H](c1ccc(O)c(O)c1)[C@@H](O)C2 [(+)-catechin]
inhibition of growth (decrease in optical density) (Pseudomonas fluorescens): distinct inhibition of growth
allelochemical activity / phytotoxicity ([2]; A. thaliana, FIGS. 2 a, b): not phytotoxic; also recorded: did not show allelochemical activity
antibacterial activity (soil borne bacteria): antibacterial activity against root infesting pathogens; also recorded: most showed a degree of inhibition
inhibition of growth (decrease in optical density) (Erwinia carotovora): distinct inhibition of growth
inhibition of growth (decrease in optical density) (Xanthomonas campestris): distinct inhibition of growth
inhibition of growth [3]: not affected

Oc1cc(O)c2c(c1)OC(c1ccc(O)c(O)c1)C(O)C2 (racemic) [(±)-catechin]
minimum inhibitory concentration (MIC) [2]: about 100 μg/ml
effect compared with root exudated (±)-catechin ([2]; commercially available racemate, FIG. 2(a and b)): same effect as root exudated (±)-catechin
resistance of C. maculosa (C. maculosa): strongly resistant

O=C(O)COc1ccc(Cl)cc1Cl [2,4-D, 2,4-dichlorophenoxyacetic acid, reference compound]
minimum inhibitory concentration (MIC) [2]: 10 µg/mL
